Laboratory results reported in US9491935B2, “Animal models of neurological disorders” (Ann & Robert H. Lurie Children's Hospital of Chicago, priority 2009, dated 2016).

Legend:
[1] = administered 3 hours prior to cocaine; cited from earlier work
CA1 pyramidal neurons = test: IPSC recordings in CA1 pyramidal cells of hippocampal slices; assay type: cell-based, mouse; details: 0.25 mM in recording ACSF; for spontaneous IPSCs (sIPSCs, mIPSCs): Evf2TS/TS and wild-type mice; for evoked IPSCs: wild-type and Evf2TS/TS mice
Description: Transverse hippocampal slices ([…]) were prepared from 3-5-month-old Evf2^TS/TS mice. Slices were cut in ice-cold (˜4° C.) oxygenated ACSF and then were allowed to recover for 1-2 h before being transferred to the recording chamber where they were continuously superfused with solution heated to 32-34° C. and saturated with 95% O2/5% CO2. The standard extracellular solution contained 124 mM NaCl, 3 mM KCl, 1.25 mM KH2PO4, 2.0 mM CaCl2, 1.3 mM MgCl2, 26 mM NaHCO3 and 10 mM glucose. The concentration of MgCl2 was raised to 2.0 mM and that of CaCl2 decreased to 1.4 mM in the slicing solution. […].
Somatic whole-cell recordings were obtained from CA1 pyramidal neurons under visual guidance using infrared differential interference contrast microscopy. Patch pipettes were pulled from borosilicate glass capillary tubing (A-M Systems). Internal solution for the patch pipettes contained 120 mM cesium methane sulphonate, 10 mM CsCl, 5 mM NaCl, 10 mM HEPES, 10 mM EGTA, 5 mM TEA-Cl, 4 mM Mg-ATP, 0.3 mM GTP and 5 mM QX-314 (pH 7.3-7.4), adjusted with CsOH, osmolarity 290±10 mOsm.
Voltage-clamp recordings were performed using Axopatch-200B (Axon Instruments). In all of our recordings, series resistance was <22 MΩ and was compensated at 80%. The recorded signal was low-pass filtered at 5 kHz and digitized at 10 kHz with a PCI-MIO-16E-4 board (National Instruments). All data were stored on a PC computer with custom software using C++ Builder 5.0 (Borland) and a NI DAQ 6.5 driver (National Instruments).
Evoked IPSCs were elicited at 0.1-0.07 Hz with a bipolar Pt/Ir electrode (2×25 μn) positioned on the stratum radiatum within 150 μm of the cell being recorded (Schaffer collateral-commisural fibers location site). At the beginning of each experiment, stimulus intensity was adjusted to evoke […] with amplitude of 0.4-0.2 nA. Evoked IPSCs were recorded at holding potential from −70 mV to +20 mV with 10-mV voltage steps after blocking EPSCs with a solution containing CNQX and D-AP5.
Spontaneous IPSCs were analyzed using MiniAnalysis 6.0.3 software (Synaptosoft). All events were manually selected on the basis of their kinetics. Between 250 and 450 individual events were analyzed for each cell. Post-recording analyses of evoked IPSPs were carried out using Clampfit 10 (Axon Instruments). All statistical values were evaluated with Origin 8 (MicroCal Software). Values are presented as mean±s.e.m. Statistical differences were established at P<0.05 using the Student t test, unless otherwise indicated.

Compound	locomotor response to cocaine [1]	spontaneous IPSCs (sIPSCs, mIPSCs) (CA1 pyramidal neurons)	spontaneous IPSCs (sIPSCs, mIPSCs) (CA1 pyramidal neurons; listed as picrotoxin)	evoked IPSCs (CA1 pyramidal neurons)	evoked IPSCs (CA1 pyramidal neurons; listed as picrotoxin)
C=CC(N)CCC(=O)O (centres unmarked) [GVG]	can attenuate locomotor response	–	–	–	–
Picrotoxin	–	blocked all IPSC activity	abolished	blocked evoked IPSCs	abolished
